Results taken from patent US9006240B2, “Method for assay on the effect of vascularization inhibitor” (Eisai R&D Management Co., Ltd., priority 2005, dated 2015).

Tests used:
HCT116 = assay: Anti-tumor effect in HCT116 subcutaneous xenograft model; type: in vivo, human; conditions: HCT116 xenograft in nude mice; methanesulfonate 100 mg/kg twice a day, one week, oral; day 8 vs day 1
Description: (§1) Human tumor cell lines MDA-MB-231, MDA-MB-468, DU145, AsPC-1 (these four lines were purchased from ATCC), A549 (purchased from Dainippon Pharmaceutical Co., Ltd.), Lovo, SK-OV-3, H526, PC-3, DLD-1, HCT116 (these six lines were purchased from ATCC), SEKI, HMV-1 (these two lines were purchased from JCRB cell bank, National Institute of Biomedical Innovation), LOX (purchased from AntiCancer) and A375 (purchased from Dainippon Pharmaceutical Co., Ltd.) were cultured with RPMI1640 (containing 10% FBS) in a 5% CO2 gas incubator until they reached about 80% confluence. After culturing, cells from each line were recovered with trypsin-EDTA by conventional procedures. The cells were suspended in phosphate buffer to prepare a cell suspension of 1×10^8 cells/ml or 5×10^7 cells/ml. […] The major axis and minor axis of tumor were measured with a Digimatic Caliper (Mitsutoyo). Then, tumor volume, relative tumor volume and ΔT/C were calculated using the following formulas: Tumor volume (TV)=tumor major axis (mm)×tumor minor axis^2 (mm^2)/2 Relative tumor volume (RTV)=tumor volume on the measurement day/tumor volume on the starting day of administration ΔT/C=(tumor volume at day 8 of administration groups−tumor volume at day 1 of administration groups)/(tumor volume at day 8 of control group−tumor volume at day 1 of control group)×100 […]

HMV-1 = assay: Anti-tumor effect in HMV-1 subcutaneous xenograft model; type: in vivo, human; conditions: HMV-1 xenograft in nude mice; methanesulfonate 100 mg/kg twice a day, one week, oral; day 8 vs day 1
Description: as §1

MDA-MB-231 = assay: Anti-tumor effect in MDA-MB-231 subcutaneous xenograft model; type: in vivo, human; conditions: MDA-MB-231 xenograft in nude mice; methanesulfonate 100 mg/kg twice a day, one week, oral; day 8 vs day 1
Description: as §1

SEKI = assay: Anti-tumor effect in SEKI subcutaneous xenograft model; type: in vivo, human; conditions: SEKI xenograft in nude mice; methanesulfonate 100 mg/kg twice a day, one week, oral; day 8 vs day 1
Description: as §1

H526 = assay: Anti-tumor effect in H526 subcutaneous xenograft model; type: in vivo, human; conditions: H526 xenograft in nude mice; methanesulfonate 100 mg/kg twice a day, one week, oral; day 8 vs day 1
Description: as §1

A375 = assay: Anti-tumor effect in A375 subcutaneous xenograft model; type: in vivo, human; conditions: A375 xenograft in nude mice; methanesulfonate 100 mg/kg twice a day, one week, oral; day 8 vs day 1
Description: as §1

MDA-MB-468 = assay: Anti-tumor effect in MDA-MB-468 subcutaneous xenograft model; type: in vivo, human; conditions: MDA-MB-468 xenograft in nude mice; methanesulfonate 100 mg/kg twice a day, one week, oral; day 8 vs day 1
Description: as §1

DLD-1 = assay: Anti-tumor effect in DLD-1 subcutaneous xenograft model; type: in vivo, human; conditions: DLD-1 xenograft in nude mice; methanesulfonate 100 mg/kg twice a day, one week, oral; day 8 vs day 1
Description: as §1

[1] = system: human non-small cell lung cancer cell line (A549); assay: Combined application of VEGF receptor kinase inhibitor and EGF inhibitor in A549 subcutaneous xenograft model; type: in vivo; conditions: nude mice, 4 weeks, control 9.94 ± 0.77
Description: Combined Application of VEGF Receptor Kinase Inhibitor and EGF Inhibitor in Human Non-Small Cell Lung Cancer Cell line (A549) Subcutaneous Xenograft Model (In Vivo) […] Then, cells were recovered with trypsin-EDTA. A cell suspension (5×10^7 cells/ml) was prepared with phosphate buffer containing 50% matrigel. The resultant cell suspension was subcutaneously transplanted into the flank of nude (0.1 ml/mouse). From day 10 of transplantation, 4-(3-chloro-4-(cyclopropylaminocarbonyl)aminophenoxy)-7-methoxy-6-quinolinecarboxamide (a methanesulfonate) and erlotinib were orally administered independently or in combination. With respect to 4-(3-chloro-4-(cyclopropylaminocarbonyl)aminophenoxy)-7-methoxy-6-quinolinecarboxamide (a methanesulfonate), it was administered at 3 mg/kg, 10 mg/kg or 30 mg/kg; once a day; for 4 weeks. With respect to erlotinib, it was administered at 50 mg/kg, once a day, for 4 weeks. The major axis and minor axis of tumor were measured with a Digimatic Caliper (Mitsutoyo). Then, tumor volume and relative tumor volume were calculated using the following formulas: […]

LOX = assay: Anti-tumor effect in LOX subcutaneous xenograft model; type: in vivo, human; conditions: LOX xenograft in nude mice; methanesulfonate 100 mg/kg twice a day, one week, oral; day 8 vs day 1
Description: as §1

DU145 = assay: Anti-tumor effect in DU145 subcutaneous xenograft model; type: in vivo, human; conditions: DU145 xenograft in nude mice; methanesulfonate 100 mg/kg twice a day, one week, oral; day 8 vs day 1
Description: as §1

PC-3 = assay: Anti-tumor effect in PC-3 subcutaneous xenograft model; type: in vivo, human; conditions: PC-3 xenograft in nude mice; methanesulfonate 100 mg/kg twice a day, one week, oral; day 8 vs day 1
Description: as §1

[2] = system: human non-small cell lung cancer cell strain (PC-9); assay: Combined application of VEGF receptor kinase inhibitor and EGF inhibitor in PC-9 subcutaneous xenograft model; type: in vivo; conditions: PC-9 xenograft, nude mice, 4 weeks, control 7.51 ± 1.69
Description: Combined Application of VEGF Receptor Kinase Inhibitor and EGF Inhibitor in Human Non-Small Cell Lung Cancer Cell Strain (PC-9) Subcutaneous Xenograft Model (In Vivo) […] Then, cells were recovered with trypsin-EDTA. A cell suspension (5×10^7 cells/nil) was prepared with phosphate buffer. The resultant cell suspension was subcutaneously transplanted into the flank of nude mice (0.1 ml/mouse). […] The major axis and minor axis of tumor were measured with a Digimatic Caliper (Mitsutoyo). Then, tumor volume and relative tumor volume were calculated using the following formulas: […]

[3] = Compound A 10 mg/kg oral once a day
[4] = Erlotinib 50 mg/kg oral once a day

| SMILES | ΔT/C (HCT116) [%] | ΔT/C (HMV-1) [%] | ΔT/C (MDA-MB-231) [%] | ΔT/C (SEKI) [%] | ΔT/C (H526) [%] | ΔT/C (A375) [%] | ΔT/C (MDA-MB-468) [%] | ΔT/C (DLD-1) [%] | Relative Tumor Volume at Day 29 Mean ± Standard Deviation ([1]; Compound A 3 mg/kg oral once a day) | Relative Tumor Volume at Day 29 Mean ± Standard Deviation [1, 3] | Relative Tumor Volume at Day 29 Mean ± Standard Deviation ([1]; Compound A 30 mg/kg oral once a day) | ΔT/C (LOX) [%] | ΔT/C (DU145) [%] | ΔT/C (PC-3) [%] | Relative Tumor Volume at Day 29 Mean ± Standard Deviation [2, 3] | Relative Tumor Volume at Day 29 Mean ± Standard Deviation [1, 4] | Relative Tumor Volume at Day 29 Mean ± Standard Deviation [2, 4] |
| --- | --- | --- | --- | --- | --- | --- | --- | --- | --- | --- | --- | --- | --- | --- | --- | --- | --- |
| COc1cc2nccc(Oc3ccc(NC(=O)NC4CC4)c(Cl)c3)c2cc1C(N)=O [Compound A, 4-(3-chloro-4-(cyclopropylaminocarbonyl)aminophenoxy)-7-methoxy-6-quinolinecarboxamide] | > 10 | > 10 | < −30 | > 10 | > 10 | > 10 | < −30 | > 10 | 4.34 ± 0.80 | 2.65 ± 0.45 | 1.65 ± 0.31 | > 10 | < −30 | > 10 | 2.24 ± 0.54 | – | – |
| C#Cc1cccc(Nc2ncnc3cc(OCCOC)c(OCCOC)cc23)c1 [Erlotinib, 4-(3-ethynylphenylamino)-6,7-bis(2-methoxyethoxy)-quinazoline, reference compound] | – | – | – | – | – | – | – | – | – | – | – | – | – | – | – | 5.71 ± 1.84 | 3.30 ± 0.19 |
